In paper PMC12362582, “Linker Methylation as a Strategy to Enhance PROTAC Oral Bioavailability: Insights from Molecular Properties and Conformational Analysis” (Journal of Medicinal Chemistry, 2025):

Key:
Type in all cases: physicochemical
[1] = log k'80 PLRP-S chromatographic lipophilicity; conditions: 80% ACN / 20% 20 mM ammonium acetate, pH 7.0
Description: Molecular properties have been quantified with physicochemical descriptors of ionization, lipophilicity, polarity and chameleonicity (see Methods). First, ionization of the 11 PROTACs (basic center, Figure a) was analyzed by potentiometry. However, standard pK a measurements in water were limited by solubility and precipitation issues (data not shown). Therefore, to assess the dominant species at physiological pH we adopted a chromatographic method previously published by some of us. Briefly, we monitored the trend of the capacity factor named log k′80 PLRP-S at different pHs (acid-neutral-basic). […] The most neutral feature of the considered PROTACs in in line with the main role played by the neutral species in crossing membranes.
(§1) Lipophilicity was assessed using three chromatographic descriptors, each simulating distinct aspects of membrane environments. BRlogD is a surrogate of the octanol/water distribution coefficient (log D oct) reflecting a general partitioning across biological membranes. Log k W ^IAM implements an Immobilized Artificial Membrane (IAM) column which provides a lipophilicity index in an environment resembling the membrane phospholipids. Finally, log k′80 PLRP-S reflects retention in a hydrophobic polymeric column environment, mimicking the nonpolar core of lipid bilayers, and acts as a surrogate for the toluene/water partition coefficient (log D tol). Lipophilicity remained within a moderate range across all systems.
(§2) All chromatographic measurements were performed using the Thermo Scientific Inc. HPLC DIONEX Ultimate 3000 connected to an RS diode array and the Chromeleon 7.2.10 software (www.thermofisher.com). 1.5 mL HPLC vials, 9 mm PP screw caps, and high-performance ergonomic single-channel variable volume pipettors from VWR Signature were used. A Eutech pH Meter 2700 was used to regulate the pH of each buffer and sample (www.fishersci.com). For all the chromatographic descriptors, the mobile phase consisted of an acetonitrile solution (ACN) and 20 mM AAB, pH 7. Moreover, 10 μL was set as the volume of injection of compound concentrations ranging from 50 to 100 μg/mL in ACN/buffer mixtures. One mL/min was chosen as the isocratic flow rate and 30 °C as the oven temperature. However, each chromatographic system (RP) had its own conditions:
Log k′80 PLRP-S and Chamelogk, on the other hand, were measured using the PLRP-S polymeric reversed-phase column (100 Å, 5 μm, 50 × 4.6 mm) from Agilent (www.agilent.com). The assessment of log k′80 PLRP-S involved the measurement and calculation of the capacity factor of each sample at an eluent composition of 80% ACN and 20% 20 mM ammonium acetate at pH 7.0. In addition, acetone, caffeine, phenol and a mixture of uracile, acetophenone and toluene were used as gold standards. Moreover, log k′80 PLRP-S was also assessed at different pHs (2, 7 and 12) using 0.1% formate buffer, 0.1% ammonium acetate, and 10 mM triethylamine.

[2] = log kW IAM (IAM.PC.DD2 column) and derived Δlog kW IAM polarity; conditions: for log kW^IAM: IAM.PC.DD2 column, extrapolated, pH 7; for Δlog kW^IAM: log kW IAM – clog kW IAM (clog = 0.92*BRlogD – 1.03)
Description: as §1
(§3) Polarity was quantified by Δlog k W ^IAM, a descriptor obtained from the experimental log k W ^IAM and BRlogD. In addition, we also measured EPSA (Table S2), another polarity descriptor based on a supercritical fluid chromatographic (SFC) system widely used in drug discovery.
as §2
This descriptor required the use of an IAM.PC.DD2 (300 Å, 10 μm, 10 cm × 4.6 mm) column from REGIS. The organic solvent of the eluent, ACN, was modified at various percentages (from 10 to 50%, v/v) and the retention times were measured. Next, the capacity factor (log k′) values were calculated as described elsewhere and the equation represented by the five was obtained. Lastly the extrapolated value at 100% ACN (0% aqueous buffer) or log k w ^IAM was obtained. Caffeine, carbamazepine, ketoprofen, theobromine, and toluene were checked daily as gold standards. ,
This polarity descriptor was calculated using the equation Δlog k w ^IAM = log k w ^IAM – clog k w ^IAM. Clog k w ^IAM, defined as the log k w ^IAM for neutral compounds with PSA = 0, has been correlated to BRlogD by our group with the equation: clog k w ^IAM= 0.92*BRlogD – 1.03.

[3] = Chamelogk chromatographic chameleonicity (PLRP-S column); conditions: Exp. log k'100 – Ext. log k'100, PLRP-S column
From the text: (§4) Chameleonicity was monitored by Chamelogk, a recent chromatographic descriptor able to capture environment-dependent conformational changes by monitoring different mobile phase compositions on the PLRP-S column. All PROTACs behave as strong chameleons (Chamelogk > 0.6). Additionally, we calculated the EPSA-to-TPSA ratio (ETR), a recently proposed index for polarity masking. The ETR values remained consistently around 0.7 across the series, supporting the notion that conformational effects contribute uniformly to the polarity profiles of the analyzed PROTACs.
Using the PLRP-S column, we assessed the RT of each PROTAC in the data set at four different mobile phase conditions (50, 60, 70 and 100% MeCN) and calculated the capacity factor at each mobile phase composition. First, we constructed a linear trend using the first three mobile phase conditions (50, 60, and 70% MeCN) that respected a linear behavior and calculated the extrapolated value at 100% MeCN (Ext. log k′100). Chamelogk was then calculated with the following equation: Chamelogk = Exp. log k′100 – Ext. log k′100.

[4] = EPSA (supercritical fluid chromatography) and EPSA-to-TPSA ratio; conditions: for EPSA: supercritical fluid chromatographic (SFC) system, SFC-based polarity descriptor
From the text: as §3, §4

Row | Structure (SMILES) | log k'80 PLRP-S [1] | log kW^IAM [2] | Δlog kW^IAM [2] | Chamelogk [3] | EPSA [4] [A^2] | ETR (EPSA-to-TPSA ratio) [4] | Δlog kW^IAM ([2]; listed as A5–1) | Δlog kW^IAM ([2]; listed as A5–4)
1 | Cc1ncsc1-c1ccc([C@H](CCCN2CCC(c3ccc4c(c3)n(C3CCCC3)c3nc(=O)c5c(Br)cccc5n43)CC2)NC(=O)[C@@H]2C[C@@H](O)CN2C(=O)[C@@H](NC(=O)C2(F)CC2)C(C)(C)C)cc1 [A3-1] | 0.07 | 2.01 | 0.93 | >2 | 133 |  |  | 
2 | Cc1ncsc1-c1ccc([C@H](C[C@H](C)CN2CCC(c3ccc4c(c3)n(C3CCCC3)c3nc(=O)c5c(Br)cccc5n43)CC2)NC(=O)[C@@H]2C[C@@H](O)CN2C(=O)[C@@H](NC(=O)C2(F)CC2)C(C)(C)C)cc1 [A3-2] | 0.18 | 2.21 | 0.21 | >2 | 130 | 0.68 |  | 
3 | Cc1ncsc1-c1ccc([C@H](C[C@@H](C)CN2CCC(c3ccc4c(c3)n(C3CCCC3)c3nc(=O)c5c(Br)cccc5n43)CC2)NC(=O)[C@@H]2C[C@@H](O)CN2C(=O)[C@@H](NC(=O)C2(F)CC2)C(C)(C)C)cc1 [A3-3] | 0.32 | 2.29 | 0.26 | >2 | 130 | 0.70 |  | 
4 | Cc1ncsc1-c1ccc([C@H](CCCCCN2CCC(c3ccc4c(c3)n(C3CCCC3)c3nc(=O)c5c(Br)cccc5n43)CC2)NC(=O)[C@@H]2C[C@@H](O)CN2C(=O)[C@@H](NC(=O)C2(F)CC2)C(C)(C)C)cc1 [A5-1] | 0.03 | 3.00 | 1.77 | >2 | 136 | 0.75 | > 1.5 | 
5 | Cc1ncsc1-c1ccc([C@H](CC[C@H](C)CCN2CCC(c3ccc4c(c3)n(C3CCCC3)c3nc(=O)c5c(Br)cccc5n43)CC2)NC(=O)[C@@H]2C[C@@H](O)CN2C(=O)[C@@H](NC(=O)C2(F)CC2)C(C)(C)C)cc1 [A5-2] | 0.22 | 2.37 | 0.85 | >2 | 133 | 0.73 |  | 
6 | Cc1ncsc1-c1ccc([C@H](CC[C@@H](C)CCN2CCC(c3ccc4c(c3)n(C3CCCC3)c3nc(=O)c5c(Br)cccc5n43)CC2)NC(=O)[C@@H]2C[C@@H](O)CN2C(=O)[C@@H](NC(=O)C2(F)CC2)C(C)(C)C)cc1 [A5-3] | 0.28 | 2.38 | 0.83 | >2 | 133 | 0.73 |  | 
7 | Cc1ncsc1-c1ccc([C@@H](CC[C@@H](C)CCN2CCC(c3ccc4c(c3)n(C3CCCC3)c3nc(=O)c5c(Br)cccc5n43)CC2)NC(=O)[C@@H]2C[C@@H](O)CN2C(=O)[C@@H](NC(=O)C2(F)CC2)C(C)(C)C)cc1 [A5-4] | 0.14 | 3.31 | 1.8 | >2 | 134 | 0.73 |  | > 1.5
8 | Cc1ncsc1-c1ccc([C@H](COCCN2CCC(c3ccc4c(c3)n(C3CCCC3)c3nc(=O)c5c(Br)cccc5n43)CC2)NC(=O)[C@@H]2C[C@@H](O)CN2C(=O)[C@@H](NC(=O)C2(F)CC2)C(C)(C)C)cc1 [B-1] | 0.05 | 1.97 | 0.61 | >2 | 128 | 0.69 |  | 
9 | Cc1ncsc1-c1ccc([C@H](CO[C@H](C)CN2CCC(c3ccc4c(c3)n(C3CCCC3)c3nc(=O)c5c(Br)cccc5n43)CC2)NC(=O)[C@@H]2C[C@@H](O)CN2C(=O)[C@@H](NC(=O)C2(F)CC2)C(C)(C)C)cc1 [B-2] | 0.05 | 1.92 | 0.57 | >2 |  | 0.68 |  | 
10 | Cc1ncsc1-c1ccc([C@H](CO[C@@H](C)CN2CCC(c3ccc4c(c3)n(C3CCCC3)c3nc(=O)c5c(Br)cccc5n43)CC2)NC(=O)[C@@H]2C[C@@H](O)CN2C(=O)[C@@H](NC(=O)C2(F)CC2)C(C)(C)C)cc1 [B-3] | 0.08 | 2.06 | 0.58 | >2 | 124 | 0.68 |  | 
11 | Cc1ncsc1-c1ccc([C@H](COC(C)(C)CN2CCC(c3ccc4c(c3)n(C3CCCC3)c3nc(=O)c5c(Br)cccc5n43)CC2)NC(=O)[C@@H]2C[C@@H](O)CN2C(=O)[C@@H](NC(=O)C2(F)CC2)C(C)(C)C)cc1 [B-4] | 0.11 | 2.00 |  | >2 | 127 | 0.67 |  | 
